IC50 data for one compound are collected here from ChEMBL document CHEMBL4418284, “Hypdh inhibitors and methods of use for the treatment of kidney stones” (2018).

This experiment has as its target T1, Hydroxyproline dehydrogenase (Homo sapiens, UniProt Q9UF12).
T1 sequence (Q9UF12 whole entry): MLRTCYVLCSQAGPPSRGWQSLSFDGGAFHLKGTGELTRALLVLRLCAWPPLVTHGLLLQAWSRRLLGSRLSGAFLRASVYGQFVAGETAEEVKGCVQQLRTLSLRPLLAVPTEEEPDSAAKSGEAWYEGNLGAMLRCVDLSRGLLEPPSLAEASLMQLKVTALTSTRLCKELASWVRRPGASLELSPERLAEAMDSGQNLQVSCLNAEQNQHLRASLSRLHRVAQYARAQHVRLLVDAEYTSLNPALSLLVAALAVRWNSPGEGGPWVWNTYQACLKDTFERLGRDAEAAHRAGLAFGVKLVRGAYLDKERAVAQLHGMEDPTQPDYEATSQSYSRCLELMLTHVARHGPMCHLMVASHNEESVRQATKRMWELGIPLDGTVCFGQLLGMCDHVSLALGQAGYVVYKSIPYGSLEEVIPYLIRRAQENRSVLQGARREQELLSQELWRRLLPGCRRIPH
The experiment in a line: Inhibition of human recombinant HYPDH expressed in Escherichia coli using hydroxyproline as substrate preincubated for 5 mins followed by substrate addition in presence of FAD as cofactor.

`O=C(O)c1ccco1`: the IC50 result is reported as “Nd(Insoluble)”.
